# How the values were obtained:
# [1] = test system: ECHORC (Echinochloa oryzoides); assay: Flooded paddy, preemergence weed control; type: in vivo, Echinochloa oryzoides (Ard.) Fritsch.; details: rated 3-4 weeks after treatment, 0-9 rating scale
# Outline: (§1)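 Flooded silt loam pots, seeds in upper 0.5 cm, water held 1.5–3 cm deep; greenhouse; visual 0-9 score vs control.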
# [2] = test system: IPOHE (Ipomoea hederacea); assay: Preemergence herbicidal evaluation; type: in vivo, (L.) Jacq.; details: rated 4-5 weeks after treatment
# [3] = test system: SETVI (Setaria viridis); assay: Postemergence herbicidal evaluation; type: in vivo, (L.) Beau; details: postemergence
# Outline: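 Visual injury score (0-9: stand, vigor, malformation, size, chlorosis, overall appearance vs untreated control) taken four to five weeks post-spray. Two-week-old seedlings received about 0.0040 to 1.000 kg/ha active compound in acetone/water with 0.5% TWEEN 20.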
# [4] = test system: TRZAWR (Wheat, Winter, cv Riband); assay: Postemergence herbicidal evaluation; type: in vivo, Triticum aestivum; details: postemergence
# Outline: (§2)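 Visual 0–9 injury scores versus control plants, covering stand, vigour, malformation, size, chlorosis and general appearance, taken four to five weeks post-spray and averaged over replicate tests. Plants were sprayed at roughly two weeks old and held on greenhouse benches.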
# [5] = test system: GLXMAW (Soybean, Williams); assay: Preemergence herbicidal evaluation; type: in vivo, Glycine max, (L.) Merr. cv Williams; details: rated 4-5 weeks after treatment
# [6] = test system: ECHCG (Echinochloa crus-galli); assay: Postemergence herbicidal evaluation; type: in vivo, (L.) Beau; details: postemergence
# Outline: as §2
# [7] = test system: ABUTH (Abutilon theophrasti); assay: Preemergence herbicidal evaluation; type: in vivo, Medic.; details: rated 4-5 weeks after treatment
# [8] = test system: SAGPY (Sagittaria pygmaea); assay: Flooded paddy, preemergence weed control; type: in vivo, L.; details: rated 3-4 weeks after treatment, 0-9 rating scale
# Outline: as §1
# [9] = test system: ORYSAT (Rice, Tebonnet); assay: Flooded paddy, post-transplant rice tolerance; type: in vivo, Oryza sativa, (L.) Tebonnet; details: flooded paddy, post-transplant rice, rated 3-4 weeks after treatment, 0-9 rating scale
# Outline: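 Ten-day-old seedlings, 2/pot, silt loam; flood kept 1.5–3 cm over soil; herbicide applied post-transplant; greenhouse; score 0–9 visual vs control.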
# [10] = test system: CYPIR (Cyperus iria); assay: Flooded paddy, preemergence weed control; type: in vivo; details: rated 3-4 weeks after treatment, 0-9 rating scale
# Outline: as §1
# [11] = test system: AMBEL (Ambrosia artemisifolia); assay: Preemergence herbicidal evaluation; type: in vivo, L.; details: rated 4-5 weeks after treatment
# Outline: (§3)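 Preemergence soil spray, aq. acetone; greenhouse; visual 0–9 score vs control at 4–5 wk.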
# [12] = test system: CHEAL (Chenopodium album); assay: Preemergence herbicidal evaluation; type: in vivo, L.; details: rated 4-5 weeks after treatment
# Outline: as §3
# [13] = test system: CASOB (Cassia obtusifolia); assay: Preemergence herbicidal evaluation; type: in vivo, L.; details: rated 4-5 weeks after treatment
# Outline: as §3
# [14] = test system: MOOVA (Monochoria vaginalis); assay: Flooded paddy, preemergence weed control; type: in vivo, Presl.; details: rated 3-4 weeks after treatment, 0-9 rating scale
# Outline: as §1
# [15] = test system: ZEAMX (Corn, Field); assay: Preemergence herbicidal evaluation; type: in vivo, Zea mays, L.; details: rated 4-5 weeks after treatment
smiles,measurement,setting,value
"C=C1COC(c2nsc3ccc(-n4c(=O)cc(C(F)(F)F)n(C)c4=O)cc23)OC1 [Compound 58, 2,4(1H,3H)-pyrimidinedione, 1-methyl-3-[3-(5-methylene-m-dioxan-2-yl)-1,2-benzisothiazol-5-yl]-6-(trifluoromethyl)-]","herbicidal rating, ECHORC",[1]; rate 0.0320 kg/ha,6.0
same,"herbicidal rating, ECHORC",[1]; rate 0.1250 kg/ha,9.0
same,Preemergence herbicidal rating IPOHE,[2]; Rate 0.0620 kg/ha,6.5
same,Preemergence herbicidal rating IPOHE,[2]; Rate 0.1250 kg/ha,7.5
same,Preemergence herbicidal rating IPOHE,[2]; Rate 0.2500 kg/ha,9.0
same,SETVI herbicidal rating,[3]; rate 0.0320 kg/ha,1.0
same,SETVI herbicidal rating,[3]; rate 0.0620 kg/ha,6.0
same,TRZAWR herbicidal rating,[4]; rate 0.0320 kg/ha,4.0
same,TRZAWR herbicidal rating,[4]; rate 0.0620 kg/ha,4.5
same,Preemergence herbicidal rating GLXMAW,[5]; Rate 0.0620 kg/ha,9.0
same,Preemergence herbicidal rating GLXMAW,[5]; Rate 0.1250 kg/ha,8.0
same,Preemergence herbicidal rating GLXMAW,[5]; Rate 0.2500 kg/ha,9.0
same,ECHCG herbicidal rating,[6]; rate 0.0320 kg/ha,1.0
same,ECHCG herbicidal rating,[6]; rate 0.0620 kg/ha,3.0
same,Preemergence herbicidal rating ABUTH,[7]; Rate 0.0620 kg/ha,9.0
same,Preemergence herbicidal rating ABUTH,[7]; Rate 0.1250 kg/ha,9.0
same,Preemergence herbicidal rating ABUTH,[7]; Rate 0.2500 kg/ha,9.0
same,"herbicidal rating, SAGPY",[8]; rate 0.0320 kg/ha,2.0
same,"herbicidal rating, SAGPY",[8]; rate 0.1250 kg/ha,5.0
same,"herbicidal rating, ORYSAT (rice tolerance)",[9]; rate 0.0320 kg/ha,4.0
same,"herbicidal rating, ORYSAT (rice tolerance)",[9]; rate 0.1250 kg/ha,7.0
same,"herbicidal rating, CYPIR",[10]; rate 0.0320 kg/ha,6.0
same,"herbicidal rating, CYPIR",[10]; rate 0.1250 kg/ha,9.0
same,Preemergence herbicidal rating AMBEL,[11]; Rate 0.0620 kg/ha,9.0
same,Preemergence herbicidal rating AMBEL,[11]; Rate 0.1250 kg/ha,9.0
same,Preemergence herbicidal rating AMBEL,[11]; Rate 0.2500 kg/ha,9.0
same,Preemergence herbicidal rating CHEAL,[12]; Rate 0.0620 kg/ha,9.0
same,Preemergence herbicidal rating CHEAL,[12]; Rate 0.1250 kg/ha,9.0
same,Preemergence herbicidal rating CHEAL,[12]; Rate 0.2500 kg/ha,9.0
same,Preemergence herbicidal rating CASOB,[13]; Rate 0.0620 kg/ha,5.5
same,Preemergence herbicidal rating CASOB,[13]; Rate 0.1250 kg/ha,6.5
same,Preemergence herbicidal rating CASOB,[13]; Rate 0.2500 kg/ha,9.0
same,"herbicidal rating, MOOVA",[14]; rate 0.0320 kg/ha,9.0
same,"herbicidal rating, MOOVA",[14]; rate 0.1250 kg/ha,9.0
same,Preemergence herbicidal rating ZEAMX,[15]; Rate 0.0620 kg/ha,8.0
same,Preemergence herbicidal rating ZEAMX,[15]; Rate 0.1250 kg/ha,9.0
same,Preemergence herbicidal rating ZEAMX,[15]; Rate 0.2500 kg/ha,9.0
"Cc1cnn(-c2nsc3ccc(-n4c(=O)cc(C(F)(F)F)n(C)c4=O)cc23)c1 [Compound 59, 1-methyl-3-[3-(4-methylpyrazol-1-yl)-1,2-benzisothiazol-5-yl]-6-(trifluoromethyl)uracil]","herbicidal rating, ECHORC",[1]; rate 0.0080 kg/ha,0.0
same,"herbicidal rating, ECHORC",[1]; rate 0.0320 kg/ha,0.0
same,"herbicidal rating, ECHORC",[1]; rate 0.1250 kg/ha,3.0
same,Preemergence herbicidal rating IPOHE,[2]; Rate 0.0620 kg/ha,0.0
same,Preemergence herbicidal rating IPOHE,[2]; Rate 0.1250 kg/ha,1.0
same,Preemergence herbicidal rating IPOHE,[2]; Rate 0.2500 kg/ha,3.0
same,SETVI herbicidal rating,[3]; rate 0.0320 kg/ha,0.0
same,SETVI herbicidal rating,[3]; rate 0.1250 kg/ha,3.0
same,TRZAWR herbicidal rating,[4]; rate 0.0320 kg/ha,3.0
same,TRZAWR herbicidal rating,[4]; rate 0.0620 kg/ha,3.5
same,TRZAWR herbicidal rating,[4]; rate 0.1250 kg/ha,4.0
same,Preemergence herbicidal rating GLXMAW,[5]; Rate 0.0620 kg/ha,0.0
same,Preemergence herbicidal rating GLXMAW,[5]; Rate 0.1250 kg/ha,2.0
same,Preemergence herbicidal rating GLXMAW,[5]; Rate 0.2500 kg/ha,3.0
same,ECHCG herbicidal rating,[6]; rate 0.0320 kg/ha,0.0
same,ECHCG herbicidal rating,[6]; rate 0.0620 kg/ha,0.0
same,ECHCG herbicidal rating,[6]; rate 0.1250 kg/ha,3.0
same,Preemergence herbicidal rating ABUTH,[7]; Rate 0.0620 kg/ha,0.0
same,Preemergence herbicidal rating ABUTH,[7]; Rate 0.1250 kg/ha,9.0
same,Preemergence herbicidal rating ABUTH,[7]; Rate 0.2500 kg/ha,7.0
same,"herbicidal rating, SAGPY",[8]; rate 0.0080 kg/ha,0.0
same,"herbicidal rating, SAGPY",[8]; rate 0.0320 kg/ha,0.0
same,"herbicidal rating, SAGPY",[8]; rate 0.1250 kg/ha,0.0
same,"herbicidal rating, ORYSAT (rice tolerance)",[9]; rate 0.0080 kg/ha,0.0
same,"herbicidal rating, ORYSAT (rice tolerance)",[9]; rate 0.0320 kg/ha,0.0
same,"herbicidal rating, ORYSAT (rice tolerance)",[9]; rate 0.1250 kg/ha,0.0
same,"herbicidal rating, CYPIR",[10]; rate 0.0080 kg/ha,0.0
same,"herbicidal rating, CYPIR",[10]; rate 0.0320 kg/ha,3.0
same,"herbicidal rating, CYPIR",[10]; rate 0.1250 kg/ha,9.0
same,Preemergence herbicidal rating AMBEL,[11]; Rate 0.0620 kg/ha,0.0
same,Preemergence herbicidal rating AMBEL,[11]; Rate 0.1250 kg/ha,5.0
same,Preemergence herbicidal rating AMBEL,[11]; Rate 0.2500 kg/ha,6.0
same,Preemergence herbicidal rating CHEAL,[12]; Rate 0.0620 kg/ha,9.0
same,Preemergence herbicidal rating CHEAL,[12]; Rate 0.1250 kg/ha,9.0
same,Preemergence herbicidal rating CHEAL,[12]; Rate 0.2500 kg/ha,9.0
same,Preemergence herbicidal rating CASOB,[13]; Rate 0.0620 kg/ha,0.0
same,Preemergence herbicidal rating CASOB,[13]; Rate 0.1250 kg/ha,0.0
same,Preemergence herbicidal rating CASOB,[13]; Rate 0.2500 kg/ha,0.0
same,"herbicidal rating, MOOVA",[14]; rate 0.0080 kg/ha,0.0
same,"herbicidal rating, MOOVA",[14]; rate 0.0320 kg/ha,3.0
same,"herbicidal rating, MOOVA",[14]; rate 0.1250 kg/ha,9.0
same,Preemergence herbicidal rating ZEAMX,[15]; Rate 0.0620 kg/ha,1.0
same,Preemergence herbicidal rating ZEAMX,[15]; Rate 0.1250 kg/ha,5.0
same,Preemergence herbicidal rating ZEAMX,[15]; Rate 0.2500 kg/ha,5.0
"Cn1c(C(F)(F)F)cc(=O)n(-c2ccc3snc(-c4ccco4)c3c2)c1=O [Compound 60, 3-[3-(2-furyl)-1,2-benzisothiazol-5-yl]-1-methyl-6-(trifluoromethyl)uracil]","herbicidal rating, ECHORC",[1]; rate 0.0080 kg/ha,1.5
same,"herbicidal rating, ECHORC",[1]; rate 0.0320 kg/ha,4.0
same,"herbicidal rating, ECHORC",[1]; rate 0.1250 kg/ha,7.0
same,Preemergence herbicidal rating IPOHE,[2]; Rate 0.0620 kg/ha,0.0
same,Preemergence herbicidal rating IPOHE,[2]; Rate 0.1250 kg/ha,0.0
same,Preemergence herbicidal rating IPOHE,[2]; Rate 0.2500 kg/ha,9.0
same,SETVI herbicidal rating,[3]; rate 0.0320 kg/ha,3.0
same,SETVI herbicidal rating,[3]; rate 0.0620 kg/ha,2.0
same,TRZAWR herbicidal rating,[4]; rate 0.0320 kg/ha,4.0
same,TRZAWR herbicidal rating,[4]; rate 0.0620 kg/ha,4.5
same,Preemergence herbicidal rating GLXMAW,[5]; Rate 0.0620 kg/ha,1.0
same,Preemergence herbicidal rating GLXMAW,[5]; Rate 0.1250 kg/ha,3.0
same,Preemergence herbicidal rating GLXMAW,[5]; Rate 0.2500 kg/ha,4.0
same,ECHCG herbicidal rating,[6]; rate 0.0320 kg/ha,2.0
same,ECHCG herbicidal rating,[6]; rate 0.0620 kg/ha,2.0
same,Preemergence herbicidal rating ABUTH,[7]; Rate 0.0620 kg/ha,5.0
same,Preemergence herbicidal rating ABUTH,[7]; Rate 0.1250 kg/ha,5.0
same,Preemergence herbicidal rating ABUTH,[7]; Rate 0.2500 kg/ha,9.0
same,"herbicidal rating, SAGPY",[8]; rate 0.0080 kg/ha,0.0
same,"herbicidal rating, SAGPY",[8]; rate 0.0320 kg/ha,0.0
same,"herbicidal rating, SAGPY",[8]; rate 0.1250 kg/ha,2.5
same,"herbicidal rating, ORYSAT (rice tolerance)",[9]; rate 0.0080 kg/ha,0.0
same,"herbicidal rating, ORYSAT (rice tolerance)",[9]; rate 0.0320 kg/ha,1.5
same,"herbicidal rating, ORYSAT (rice tolerance)",[9]; rate 0.1250 kg/ha,2.5
same,"herbicidal rating, CYPIR",[10]; rate 0.0080 kg/ha,0.0
same,"herbicidal rating, CYPIR",[10]; rate 0.0320 kg/ha,6.0
same,"herbicidal rating, CYPIR",[10]; rate 0.1250 kg/ha,7.0
same,Preemergence herbicidal rating AMBEL,[11]; Rate 0.0620 kg/ha,0.0
same,Preemergence herbicidal rating AMBEL,[11]; Rate 0.1250 kg/ha,5.0
same,Preemergence herbicidal rating AMBEL,[11]; Rate 0.2500 kg/ha,9.0
same,Preemergence herbicidal rating CHEAL,[12]; Rate 0.0620 kg/ha,7.0
same,Preemergence herbicidal rating CHEAL,[12]; Rate 0.1250 kg/ha,9.0
same,Preemergence herbicidal rating CHEAL,[12]; Rate 0.2500 kg/ha,9.0
same,Preemergence herbicidal rating CASOB,[13]; Rate 0.0620 kg/ha,0.0
same,Preemergence herbicidal rating CASOB,[13]; Rate 0.1250 kg/ha,0.0
same,Preemergence herbicidal rating CASOB,[13]; Rate 0.2500 kg/ha,0.0
same,"herbicidal rating, MOOVA",[14]; rate 0.0080 kg/ha,0.0
same,"herbicidal rating, MOOVA",[14]; rate 0.0320 kg/ha,9.0
same,"herbicidal rating, MOOVA",[14]; rate 0.1250 kg/ha,9.0
same,Preemergence herbicidal rating ZEAMX,[15]; Rate 0.0620 kg/ha,3.0
same,Preemergence herbicidal rating ZEAMX,[15]; Rate 0.1250 kg/ha,5.0
same,Preemergence herbicidal rating ZEAMX,[15]; Rate 0.2500 kg/ha,6.0

# Source: patent publication US6706663B2, “Herbicidal 3-heterocyclic substituted benzisothiazole and benzisoxazole compounds” (Wyeth, priority 2000, dated 2004)
